Two substances from publication PMC11475408, “All‐Inorganic Polyoxometalates Act as Superchaotropic Membrane Carriers” (Advanced Materials (Deerfield Beach, Fla.), 2023) can be followed below.

Several values for one entry are separate records, joined by “and”; a condition that tells them apart may be missing. Equal values may be shown once.

Data set [1] in a line: Stability of POMs in nutrient mixture F-12 Ham by NMR. The class given is physicochemical. The procedure:
To better mimic biological membranes, which contain negatively charged components and cholesterol, equivalent transport experiments were performed in anionic liposomes^[ [19], [20] ^] with the prototypal POM carriers, [PVW11]^4‒ and [SiMoW11]^4‒ . […] This encouraged us to transfer the experiments to CHO‐K1 (Chinese hamster ovary) cells, after we had confirmed sufficient stability of the most promising POM carriers, [PVW11]^4‒ and [SiMoW11]^4‒ , in the cellular nutrient mixture (F‐12 Ham's medium, Figures S26–S28C, Supporting Information).
Table S9. Results of stability investigation by NMR spectroscopy.
11 product, presumably [SiIVWVI12O40]4–) […]
product, presumably [SiIVWVI12O40]4–)
[AlW ]5‒ freshly prepared
[GeAlW ]5‒ freshly prepared […]
prepared ‒13.7; ‒14.7 intermediate anions
Stability of [PVW11]4‒ in 10 mM Mes buffer pH 5.5: 31P NMR studies were firstly performed on 3 mM solutions of [α-PVVVWVI11O40]4‒ in 10 mM Mes buffer pH 5.5 (Figure S25). The 31P NMR recorded immediately ([…]), one day (Figure S25B), and five days (Figure S25C) after solution preparation display the same signals that can be attributed to the intact [α-PVVVWVI11O40]4‒ (‒14.9 ppm) and the monolacunary [α-PVWVI11O40]7‒ (‒10.8 ppm) species formed upon partial hydrolysis. […]
Figure S24. 31P (A) and 51V (B) NMR spectra of 3 mM solutions of [PVW11]4‒ recorded in D2O. […]

The test system of data set [2] is protamine. Description: ITC, POM into protamine. It counts as binding. The following applies: 10 mM Tris, pH 7.4, value is Ka divided by 10^7. Here is the method:
(§1) All experiments were performed with a VP‐ITC MicroCalorimeter from MicroCal, Int,. at atmospheric pressure and 298.15 K. Solutions were degassed and thermostatic prior to the titration experiments in a ThermoVac accessory. A constant volume of POM ([PVW11]^4‒ or [SiMoW11]^4‒) (10 µL per injection) was injected into the oligopeptide solution (heptaArg, protamine, polyArg or heptaLys) in 10 mM Tris, pH 7.4 to determine the apparent binding affinity of [PVW11]^4‒ and [SiMoW11]^4‒ with the oligopeptides. Dilution heats were determined by titration of the POM into buffer and subtracted from the reaction heat. The neat reaction heat was fitted with Origin 7.0 software by using the “one‐set‐of‐sites” model to obtain the complex stability constant (K a) and molar reaction enthalpy (∆H°). The free energy (∆G°) and entropy changes (∆S°) were obtained according to the relation: ∆G° = −RTlnK a = ∆H°−T∆S°.
4. Supramolecular interactions
Figure S10. Microcalorimetric titrations in 10 mM Tris, pH 7.4: Raw ITC data (top) for the sequential injections of POM solution into an oligoarginine solution, and apparent reaction heats (bottom) obtained from the integration of the calorimetric traces. […]
values and ± 0.5 kcal mol‒1 for ΔH and TΔS (duplicate measurements). Note that none of these interactions lead to any precipitation or aggregates, confirmed by the absence of any detectable signal by DLS. […]

Data set [3] deals with heptalysine. The data set is described as follows: ITC, POM into heptalysine. To be noted: 10 mM Tris, pH 7.4, value is Ka divided by 10^7. The class given is binding. The procedure:
as §1
Figure S11. Microcalorimetric titrations in 10 mM Tris, pH 7.4: Raw ITC data (top) for the sequential injections of POM solution into a heptalysine solution, and apparent reaction heats (bottom) obtained from the integration of the calorimetric traces. POM/heptalysine concentrations in µM: a, 200/8 and b, 150/10. Error data is 5% for the n values and ± 0.5 kcal mol‒1 for ΔH and TΔS (duplicate […]
Table S6. […]
Background: ITC needs no label: the signal is the heat of the interaction.

Turning to “K4[α‐P^VV^VW^VI 11O40]·4H2O [[PVW11]^4‒]”, the “% parent anion, nutrient mixture F-12 Ham freshly prepared” value in data set [1] (3 mM POM, F-12 Ham pH 7.4, 31P NMR integration) was determined as 43%. Besides, the “Ka/ 107, protamine” value in data set [2] is given as 25 M‒1. In data set [3], the “Ka/ 107, heptalysine” value is recorded as 2.8 M‒1.
For “K4[α‐Si^IVMo^VIW^VI 11O40]·24H2O [[SiMoW11]^4‒]”, the “% parent anion, F-12 Ham after 1 h at 37 °C (183W NMR)” value in data set [1] (10 mM POM, F-12 Ham (final pH 5.7), 183W NMR signal intensities) was 50% and ~ 50%. Also, the “Ka/ 107, protamine” value in data set [2] is 1.7 M‒1. In addition, in data set [3], the “Ka/ 107, heptalysine” value is 4.1 M‒1.
